# Assay results taken from PubChem BioAssay (NCI).
# Where “and” joins values, the source holds several entries; their conditions need not be identical. Equal entries are not always repeated.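 Protocol summary: plate cells (96-well), add compound at 5 concentrations, incubate 48 h, interpolate endpoints linearly. GI50: concentration for 50% inhibition of growth. At the TGI there is no net growth.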
# Legend:
# Assay in all cases: NCI-60 cell line screen, 48 h
# A498 renal = test system: A498 renal
# ACHN renal = test system: ACHN renal
# EKVX NSCLC = test system: EKVX NSCLC
# HCT-116 colon = test system: HCT-116 colon
# HOP-92 NSCLC = test system: HOP-92 NSCLC
# KM12 colon = test system: KM12 colon
# NCI-H460 lung = test system: NCI-H460 lung
# RXF 393 renal = test system: RXF 393 renal
# TK-10 renal = test system: TK-10 renal
# U251 CNS = test system: U251 CNS
SMILES,TGI (A498 renal),TGI (ACHN renal),TGI (EKVX NSCLC),TGI (HCT-116 colon),TGI (HOP-92 NSCLC),TGI (KM12 colon),TGI (NCI-H460 lung),TGI (RXF 393 renal),TGI (TK-10 renal),TGI (U251 CNS),GI50 (A498 renal),GI50 (ACHN renal),GI50 (EKVX NSCLC),GI50 (HCT-116 colon),GI50 (HOP-92 NSCLC),GI50 (KM12 colon),GI50 (NCI-H460 lung),GI50 (RXF 393 renal),GI50 (TK-10 renal),GI50 (U251 CNS)
COc1cccc(C=O)c1C(=O)c1cc(O)ccc1O,> 63.7 µM,31.1 µM,37.9 µM,39.2 µM,33.1 µM,> 100 µM,> 100 µM,32.2 µM,> 56.7 µM,> 100 µM,–,–,–,–,–,–,–,–,–,–
CCN1CCC(CC(=O)Nc2n[nH]c3nnc(-c4cccc(F)c4F)cc23)CC1,> 25 µM,> 25 µM,> 25 µM,> 25 µM,> 25 µM,> 25 µM,> 25 µM,> 25 µM,> 25 µM,> 25 µM,2.84 µM,> 25 µM,> 25 µM,24.9 µM,> 25 µM,> 25 µM,> 25 µM,5.56 µM,> 25 µM,21.2 µM
CS(=O)(=O)CCNCc1ccc(-c2ccc3ncnc(Nc4ccc(OCc5cccc(F)c5)c(Cl)c4)c3c2)o1,> 10 µM and > 33 µM and 23.8 µM,> 10 µM and > 100 µM and 54.4 µM,> 10 µM and > 100 µM and 41.7 µM,> 10 µM and > 100 µM and 23.6 µM,> 10 µM and > 100 µM and 14.4 µM,> 10 µM and 4 µM and 24.5 µM,> 10 µM and > 29.3 µM and 48.7 µM,> 10 µM and 4.5 µM and 7.05 µM,> 10 µM and > 100 µM and 11.2 µM,> 10 µM and > 100 µM and 24.9 µM,2.32 µM and 1.98 µM and 3.67 µM,0.539 µM and 0.435 µM and 0.323 µM,0.374 µM and 0.0822 µM and 0.107 µM,> 10 µM and 7.19 µM and 10.3 µM,2.17 µM and 18.6 µM and 2.03 µM,8.92 µM and 2.03 µM and 5.25 µM,> 10 µM and 4.11 µM and 8.98 µM,8.01 µM and 2.05 µM and 1.79 µM,0.17 µM and 0.176 µM and 0.0385 µM,> 10 µM and 6.7 µM and 9.36 µM
COC(=O)c1cc(NC(=O)c2cc(NC(=O)c3cc([N+](=O)[O-])n(C)c3)cn2C)cn1C,> 100 µM,53.5 µM,> 100 µM,> 100 µM,85.2 µM,> 100 µM,> 100 µM,> 100 µM,> 100 µM,> 100 µM,84 µM,2.53 µM,> 100 µM,31.8 µM,13.2 µM,80.8 µM,> 100 µM,> 100 µM,46.7 µM,32.7 µM
Cc1cc(=O)[nH]c(CNC(=O)c2ccc3ccccc3c2)n1,> 100 µM,> 100 µM,> 100 µM,> 100 µM,> 100 µM,> 100 µM,> 100 µM,> 100 µM,> 100 µM,> 100 µM,–,–,–,–,–,–,–,–,–,–
CC1=C/C=C/C(=O)O[C@@H]([C@H](C)[C@H](O)[C@@H](C)NC(=O)C(C)C)[C@H](C)/C=C/C(C)=C/[C@H]2C=CCC[C@@]2(C)\C=C\1,32.8 µM,6.98 µM,25.1 µM,6.3 µM,6.5 µM,> 42.3 µM,26.4 µM,8.69 µM,19 µM,7.18 µM,6.03 µM and 5.25 µM,0.136 µM,1.65 µM and 3.94 µM,0.0446 µM and 0.0232 µM,0.059 µM and 0.0545 µM,0.518 µM and 0.343 µM,0.526 µM and 0.287 µM,–,6.12 µM,0.0759 µM and 0.0702 µM
CCc1ccccc1NC(=O)C(=O)C(C#N)c1ccccc1Cl (centres undefined),> 100 µM,> 100 µM,> 100 µM,> 100 µM,> 100 µM,> 100 µM,33.1 µM,> 100 µM,6.31 µM,> 100 µM,–,–,–,–,–,–,–,–,–,–
